How the values were obtained:
[1] = (§1) The drug is tested on Z-021 corresponding to metagenome with ENA study accession number: PRJEB37062 and ENA sample accession number: ERS12561820 for biotransformation under anaerobic condition. The drug concentrations were measured over 9 timepoints collected between 0 and 24 hours of incubation by liquid-chromatography-coupled mass spectrometry (LC–MS); conditions: 2 µM
[2] = as §1, with “Z-008” for “Z-021”, “ERS12561808” for “ERS12561820”; conditions: 2 µM
[3] = (§2) The drug is tested on WLS-007 corresponding to human gut metagenome with ENA study accession number: PRJEB37062 and ENA sample accession number: ERS12561742 for biotransformation under anaerobic condition. The drug concentrations were measured over 9 timepoints collected between 0 and 24 hours of incubation by liquid-chromatography-coupled mass spectrometry (LC–MS); conditions: 2 µM
[4] = human gut metagenome, 24 h, 2 µM
[5] = as §2, with “Z-016” for “WLS-007”, “mouse” for “human”, “ERS12561815” for “ERS12561742”; conditions: 2 µM
[6] = human gut metagenome, 24 h, 2 µM; remark: listed apart in the source
[7] = as §2, with “WLS-170” for “WLS-007”, “ERS12561762” for “ERS12561742”; conditions: 2 µM
[8] = as §1, with “Z-023” for “Z-021”, “ERS12561822” for “ERS12561820”; conditions: 2 µM
[9] = human gut metagenome, 24 h, 2 µM; remark: listed apart in the source
[10] = as §1, with “Z-010” for “Z-021”, “ERS12561810” for “ERS12561820”; conditions: 2 µM
[11] = human gut metagenome, 24 h, 2 µM; remark: listed apart in the source
[12] = human gut metagenome, 24 h, 2 µM; remark: listed apart in the source
[13] = as §1, with “Z-027” for “Z-021”, “ERS12561826” for “ERS12561820”; conditions: 2 µM
[14] = human gut metagenome, 24 h, 2 µM; remark: listed apart in the source
[15] = human gut metagenome, 24 h, 2 µM; remark: listed apart in the source
[16] = as §2, with “WLS-038” for “WLS-007”, “ERS12561745” for “ERS12561742”; conditions: 2 µM
[17] = as §2, with “Z-006” for “WLS-007”, “mouse” for “human”, “ERS12561806” for “ERS12561742”; conditions: 2 µM
[18] = as §2, with “Z-018” for “WLS-007”, “pig” for “human”, “ERS12561817” for “ERS12561742”; conditions: 2 µM
[19] = as §2, with “Z-020” for “WLS-007”, “rabbit” for “human”, “ERS12561819” for “ERS12561742”; conditions: 2 µM
[20] = as §2, with “WLS-350” for “WLS-007”, “ERS12561789” for “ERS12561742”; conditions: 2 µM
Also: call rule not given here.

| Compound | Bacterial Biotransformation [1] | Bacterial Biotransformation [2] | Bacterial Biotransformation [3] | Bacterial Biotransformation [4] | Bacterial Biotransformation [5] | Bacterial Biotransformation [6] | Bacterial Biotransformation [7] | Bacterial Biotransformation [8] | Bacterial Biotransformation [9] | Bacterial Biotransformation [10] | Bacterial Biotransformation [11] | Bacterial Biotransformation [12] | Bacterial Biotransformation [13] | Bacterial Biotransformation [14] | Bacterial Biotransformation [15] | Bacterial Biotransformation [16] | Bacterial Biotransformation [17] | Bacterial Biotransformation [18] | Bacterial Biotransformation [19] | Bacterial Biotransformation [20] |
| --- | --- | --- | --- | --- | --- | --- | --- | --- | --- | --- | --- | --- | --- | --- | --- | --- | --- | --- | --- | --- |
| CN1CCOC(c2ccccc2)c2ccccc2C1 (stereo not drawn) [NEFOPAM] | Compound NOT metabolized | Compound NOT metabolized | Compound metabolized | Compound NOT metabolized | Compound NOT metabolized | Compound NOT metabolized | Compound NOT metabolized | Compound NOT metabolized | Compound NOT metabolized | Compound NOT metabolized | Compound NOT metabolized | Compound NOT metabolized | Compound NOT metabolized | Compound metabolized | Compound metabolized | Compound NOT metabolized | Compound NOT metabolized | Compound NOT metabolized | Compound NOT metabolized | Compound metabolized |
| CCN1CCCC1CNC(=O)c1cc(S(N)(=O)=O)ccc1OC (stereo not drawn) [SULPIRIDE] | Compound NOT metabolized | Compound NOT metabolized | Compound NOT metabolized | Compound NOT metabolized | Compound NOT metabolized | Compound NOT metabolized | Compound metabolized | Compound NOT metabolized | Compound metabolized | Compound metabolized | Compound metabolized | Compound NOT metabolized | Compound NOT metabolized | Compound NOT metabolized | Compound NOT metabolized | Compound NOT metabolized | Compound NOT metabolized | Compound metabolized | Compound NOT metabolized | Compound NOT metabolized |
| Cc1nc(-c2ccc(OCC(C)C)c(C#N)c2)sc1C(=O)O [FEBUXOSTAT] | Compound metabolized | Compound NOT metabolized | Compound NOT metabolized | Compound NOT metabolized | Compound metabolized | Compound metabolized | Compound metabolized | Compound metabolized | Compound metabolized | Compound metabolized | Compound metabolized | Compound metabolized | Compound metabolized | Compound metabolized | Compound metabolized | Compound metabolized | Compound NOT metabolized | Compound metabolized | Compound metabolized | Compound metabolized |
| COC(=O)Nc1nc2ccc(C(=O)c3ccccc3)cc2[nH]1 [MEBENDAZOLE] | Compound metabolized | Compound metabolized | Compound metabolized | Compound metabolized | Compound metabolized | Compound metabolized | Compound metabolized | Compound metabolized | Compound metabolized | Compound metabolized | Compound metabolized | Compound metabolized | Compound NOT metabolized | Compound NOT metabolized | Compound metabolized | Compound metabolized | Compound metabolized | Compound metabolized | Compound metabolized | Compound NOT metabolized |
| NC(=O)N1c2ccccc2CC(=O)c2ccccc21 [OXCARBAZEPINE] | Compound NOT metabolized | Compound NOT metabolized | – | Compound NOT metabolized | Compound NOT metabolized | Compound metabolized | Compound NOT metabolized | Compound metabolized | Compound NOT metabolized | Compound metabolized | Compound NOT metabolized | Compound NOT metabolized | Compound NOT metabolized | Compound metabolized | Compound NOT metabolized | Compound NOT metabolized | Compound NOT metabolized | Compound metabolized | Compound NOT metabolized | Compound metabolized |
| COC(=O)[C@H]1[C@H]2C[C@@H]3c4[nH]c5cc(OC)ccc5c4CCN3C[C@H]2C[C@@H](OC(=O)c2cc(OC)c(OC)c(OC)c2)[C@@H]1OC [RESERPINE] | Compound metabolized | Compound NOT metabolized | Compound NOT metabolized | Compound NOT metabolized | Compound NOT metabolized | Compound metabolized | – | Compound metabolized | Compound metabolized | Compound NOT metabolized | Compound metabolized | – | Compound NOT metabolized | Compound metabolized | Compound NOT metabolized | Compound NOT metabolized | Compound NOT metabolized | Compound NOT metabolized | Compound NOT metabolized | Compound NOT metabolized |
| C=CCN1CC[C@]23c4c5ccc(O)c4O[C@H]2C(=O)CC[C@@]3(O)[C@H]1C5 [NALOXONE] | Compound NOT metabolized | Compound NOT metabolized | – | Compound NOT metabolized | Compound NOT metabolized | Compound NOT metabolized | Compound NOT metabolized | Compound NOT metabolized | Compound metabolized | Compound NOT metabolized | Compound NOT metabolized | Compound NOT metabolized | Compound NOT metabolized | Compound NOT metabolized | Compound NOT metabolized | Compound NOT metabolized | Compound NOT metabolized | Compound NOT metabolized | Compound NOT metabolized | Compound NOT metabolized |
| O=c1[nH]c2ccccc2n1CCCN1CCC(n2c(=O)[nH]c3cc(Cl)ccc32)CC1 [DOMPERIDONE] | Compound NOT metabolized | Compound NOT metabolized | Compound NOT metabolized | – | Compound NOT metabolized | Compound NOT metabolized | – | Compound NOT metabolized | Compound NOT metabolized | Compound NOT metabolized | Compound NOT metabolized | – | Compound NOT metabolized | Compound NOT metabolized | Compound NOT metabolized | Compound NOT metabolized | Compound NOT metabolized | Compound NOT metabolized | Compound NOT metabolized | Compound NOT metabolized |

Reference: ChEMBL document CHEMBL5724914, “Linking interpersonal differences in gut microbiota composition and drug biotransformation activity” (2024)
